# Measurements taken from paper PMC12057341, “In vitro pharmacokinetic/pharmacodynamic modeling of the effect of mucin on polymyxin B activity against Acinetobacter baumannii” (Antimicrobial Agents and Chemotherapy, 2025).
# Entries after “also recorded” stand apart in the source; their conditions may differ. Where a SMILES comes first, the peptide text is derived from it. Bridges are numbered along the chain shown (N, C = ends). [ ]: non-standard residue; d: D form. The star is where a group is joined. X1 = CC[C@H](C)CCCCC(=O)*; Dab = NCC[C@H](N)C(=O)O
# Tests used:
# Assay type in all cases: cell-based
# [1] = system: Acinetobacter baumannii AB121-D0; test: MIC at the end (T30h) of TK experiments after regrowth, AB121-D0
# Experimental: PMB MICs of both A. baumannii strains were determined in commercial CAMHB (BioMérieux, Marcy-l’Etoile, France) according to the European Committee on Antimicrobial Susceptibility Testing and Clinical and Laboratory Standards Institute (CLSI) recommendations ([33], [34]). PMB MICs of the two A. baumannii isolates were also determined at least in duplicate in CAMHB supplemented with 1% of mucin.
# Samples were centrifuged (8 minutes at 8,000 rpm); then, the supernates were removed, and the pellets were stored at −80°C in CAMHB-glycerol 20%. A minimum bacterial density of ~10^5 CFU/mL in samples collected at the end of TK experiments was required for MIC susceptibility testing and sequencing.
# Prior to MIC testing, the isolates were streaked onto a drug-free Mueller-Hinton agar plate and incubated for 24 h.
# [2] = system: Acinetobacter baumannii AB122-D12; test: Time-kill experiments and PK/PD modeling, AB122-D12
# Experimental: (§1) Bacteria were cultured overnight under shaking (150–170 rpm) in CAMHB at 35°C. The bacterial suspension was then diluted to 1/50 and incubated at 35°C under shaking until an optical density of 0.3 (corresponding to 1.10^8 CFU/ml of bacteria in the exponential growth phase) was achieved. This bacterial suspension was then diluted in order to obtain a starting inoculum at 1.10^6 CFU/mL. TK experiments were performed in CAMHB in the absence and presence of 1% mucin. PMB concentrations varied from 0.5 mg/L to 128 mg/L for AB121-D0 and 8 mg/L to 512 mg/L for AB122-D12. Drug-free CAMHB was used as bacterial growth control for each strain. Tubes were incubated at 35°C under shaking (150–170 rpm), and aliquots were sampled over time at T0h, T1h, T3h, T6h, T10h, T24h, and T30h. Samples were serially diluted in NaCl 0.9% and plated onto Mueller-Hinton agar supplemented with 1% activated charcoal (to prevent PMB carry-over effect). Bacteria were counted after overnight incubation at 35°C. The limit of quantification was fixed based on CLSI guidelines ([38]) and was equal to 400 CFU/ml (i.e. 2.6 log10 CFU/mL). Experiments were conducted in triplicate for both strains.
# (§2) Bacterial counts obtained from TK experiments without mucin were first modeled using NONMEM 7.4 (ICON plc, Dublin, Ireland) with the Laplacian algorithm and the M3 method for handling observations below the limit of quantification ([39]). PMB was assumed to be stable over the course of the experiment as previously shown ([40]). A previously described model with hetero-resistance ([41]), that is, two bacterial subpopulations, one susceptible to PMB (S) and one resistant (R), was used to describe the time course of bacterial counts for the two A. baumannii strains (Fig. 1). Different functions were tested to characterize the PMB killing effect (see supplemental material for model building).
# Then, TK data in the presence of mucin were included in the data set and PMB total concentrations were corrected for mucin binding using equation 1, with unbound PMB concentrations driving the antibacterial effect. […]
# [3] = system: Acinetobacter baumannii AB121-D0; test: Time-kill experiments and PK/PD modeling, AB121-D0; details: for Unbound PMB concentrations at which regrowth was observed in TK: CAMHB + 1% mucin
# Experimental: as §1, §2
# Then, TK data in the presence of mucin were included in the data set and PMB total concentrations were corrected for mucin binding using equation 1, with unbound PMB concentrations driving the antibacterial effect. Random variability between TK experiments (one experiment corresponding to a replicate of a tested concentration) was included to account for the uncertainty associated with each parameter of equation 1 and thus with the estimation of unbound PMB concentration in TK, such as:
# An impact of mucin on PD model parameters was tested on top of PMB binding to mucin with the following equation:
# (4) Pj=θj,1×(1−Mucin)+θj,2×Mucin,
# where Pj was the jth parameter of the PD model, Mucin was a categorical variable either equal to 0 or 1 depending on its absence or presence in TK experiments respectively, θj,1 and θj,2 corresponded to the Pj value in the absence and in the presence of mucin, respectively. […]
smiles,measurement,setting,value
"CC[C@H](C)CCCCC(=O)N[C@@H](CCN)C(=O)N[C@H](C(=O)N[C@@H](CCN)C(=O)N[C@H]1CCNC(=O)[C@H]([C@@H](C)O)NC(=O)[C@H](CCN)NC(=O)[C@H](CCN)NC(=O)[C@H](CC(C)C)NC(=O)[C@@H](Cc2ccccc2)NC(=O)[C@H](CCN)NC1=O)[C@@H](C)O [PMB, polymyxin B] (X1-[Dab]T[Dab][Dab][Dab][dF]L[Dab][Dab]T; lactam 4-C)",MIC fold-change vs control of respective replicate,"[1]; TK in CAMHB + 1% mucin, PMB 0.25 mg/L, replicate 3, pmrB Phe164Ile",>64
same,MIC fold-change vs control of respective replicate,"[1]; TK in CAMHB + 1% mucin, PMB 0.5 mg/L, replicate 2, pmrB Pro170Leu",>32
same,MIC fold-change vs control of respective replicate,"[1]; TK in CAMHB + 1% mucin, PMB 0.5 mg/L, replicate 3, pmrB Arg231Leu",>64
same,MIC fold-change vs control of respective replicate,"[1]; TK in CAMHB + 1% mucin, PMB 13 mg/L, replicate 4, pmrB Ala227Val",>64
same,MIC fold-change vs control of respective replicate,"[1]; TK in CAMHB, PMB 0.5 mg/L, replicate 2, pmrB Arg263His",>32
same,MIC fold-change vs control of respective replicate,"[1]; TK in CAMHB, PMB 0.5 mg/L, replicate 3, ISAba1 insertion in the promoter of pmrC_3",32
same,MIC fold-change vs control of respective replicate,"[1]; TK in CAMHB, PMB 0.5 mg/L, replicate 4, pmrB Asn353Tyr",>64
same,MIC fold-change vs control of respective replicate,"[1]; TK in CAMHB, PMB 1 mg/L, replicate 4, pmrB 16.25dup",32
same,MIC fold-change vs control of respective replicate,"[1]; TK in CAMHB, PMB 4 mg/L, replicate 2, pmrB Pro170Leu",>32
same,Regrowth samples at T30h with MIC increased (≥32-fold) compared to control,"[1]; TK in the absence of mucin, 6 out of 10 samples",60%
same,"Regrowth samples at T30h with MIC increased (same order of magnitude, ≥32-fold) compared to control","[1]; TK in the presence of mucin, 5 out of 16 samples",31%
same,Cases of regrowth associated with an increase in the MIC at T30h,[1]; with and without mucin together,42%
same,Fold increase of EC50 in the presence of mucin,"[2]; 1% mucin vs no mucin, both S and R subpopulations",increased approx. fivefold; also recorded: fivefold increase
same,Unbound PMB concentration able to prevent bacterial regrowth in TK,"[2]; CAMHB + 1% mucin, no concentration in the range tested prevented regrowth",> 304 mg/L
same,PMB concentrations up to which regrowth was observed in TK after initial CFU decay,"[2]; CAMHB without mucin, 30 h",≤ 128 mg/L
same,Fold increase of EmaxR in the presence of mucin,[3]; 1% mucin vs no mucin,1.4 fold
same,Unbound PMB concentrations at which regrowth was observed in TK,[3]; one-third of replicates,≤ 13 mg/L
same,Unbound PMB concentrations at which regrowth was observed in TK,[3]; two-thirds of replicates,≤ 0.5 mg/L
same,PMB concentrations up to which regrowth was observed in TK after initial CFU decay,"[3]; CAMHB without mucin, 30 h",up to 8 mg/L
